Entries after “also recorded” stand apart in the source; their conditions may differ. Non-standard residues stand in square brackets, D forms with d. Residues, ends and D or L forms follow the SMILES beside them. Aib = CC(C)(N)C(=O)O
Experiments:
amyloid beta Aβ1-42 = amyloid beta Aβ1-42 (Homo sapiens, UniProt P05067); settings: read-out: binding affinity to amyloid beta Aβ1-42; cited from earlier work
Aβ1-42 monomers = molecular target: T1, Aβ1-42 monomers (Homo sapiens, UniProt P05067); assay: Surface Plasmon Resonance (SPR) binding of compound (1) to immobilized Aβ1-42 monomers (Biacore X100)
T1 construct: purchased American Peptide Company, Sunnyvale, CA, USA; host or cells: synthetic peptide
T1 sequence (P05067 672-713 limits assumed): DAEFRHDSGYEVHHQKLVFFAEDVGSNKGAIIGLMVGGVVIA
Procedure: FIG. 1 Represents a graphical illustration of compound (1)'s target affinity to amyloid beta Aβ1-42 monomers using Surface Plasmon Resonance (SPR). Synthetic Aβ1-42 was used for this binding assay performed with a Biacore X100 biosensor instrument equipped with two flow cells. Aβ1-42 was covalently coupled to one flow cell of CM7 sensor chips using an amine coupling kit. HBS-EP was used as assay running buffer. The analyte compound (1) was injected over the sensor chip in concentrations ranging from 0.3 nM up to 1000 nM at a flow rate of 10 μL/min for 180 sec at 25° C. […]
The aim of this experiment was to evaluate the target affinity of compound (1) to misfolded Aβ1-42 monomers. The affinity was determined using in vitro Surface Plasmon Resonance (SPR) technology. […]
The resonance units (RUs) elicited by the compound injected into the ethanolamine control flow cell was set as reference response and subtracted from the RUs elicited by the same compound injected to the Aβ saturated flow cell. […] The dissociation equilibrium constant KD of the analyte to the immobilized Aβ was determined from the steady-state levels estimating the maximum RU Rmax and calculating the KD as the concentration of the compound that elicited one-half of the Rmax.

[1] = Pharmacokinetics in the rat brain: microdialysis of brain interstitial fluid (prefrontal cortex), HPLC-MS/MS; type: in vivo
Procedure: FIG. 2 Represents a graphical illustration of compound (1)'s pharmacokinetics in the rat brain. Compound (1) was administered as subcutaneous (s.c.) injection at doses of 0.4 mg/kg (∇) and […] (O, Δ). A microdialysis probe has been placed in the prefrontal cortex of these adult male Sprague Dawley rats to measure the concentration of compound (1) in the brain interstitial fluid (ISF) using a HPLC system with MS/MS detector. The dialysate samples were collected at a flow rate of 0.10 μL/min with a carrier flow rate of 0.8 μL/min. The animals were either anesthetized or awake and freely moving. Microdialysis data over a period of 360 min are depicted on a linear scale as means of 4 measurements±SEM.
The aim of this experiment was to evaluate the pharmacokinetics of compound (1) in the rat brain. Compound (1) was administered subcutaneously to anesthetized or awake and freely moving animals. A microdialysis probe has been placed in the prefrontal cortex of these adult male Sprague Dawley rats to measure the concentration of compound (1) in the brain interstitial fluid (ISF) using a HPLC system with MS/MS detector.

oligomeric Aβ1-42 = molecular target: T2, oligomeric Aβ1-42 (Homo sapiens, UniProt P05067); assay: In vivo LTP in anesthetized rats after i.c.v. oligomeric Aβ1-42; design: species or system rat; settings: for PS amplitude 80-90 min after LTP induction: Aβ1-42 alone 138.1±4.1, vehicle 179.2±8.7
T2 construct: Amyloid beta Aβ1-42 has been injected into brain ventricles at a concentration that strongly suppresses LTP; host or cells: peptide solution injected into anesthetized rats
T2 sequence (P05067 672-713 limits assumed): as above
Procedure: FIG. 3 Represents a graphical illustration of compound (1)'s dose-dependent effects on in vivo LTP in anesthetized rats at very low concentrations. Given are normalized LTP of population spike (PS) amplitude at 80-90 min post theta burst stimulation (TBS). Compound (1) has been administered s.c. at dose of 0.08 mg/kg, 0.4 mg/kg, and 2.0 mg/kg. Amyloid beta Aβ1-42 has been injected into brain ventricles at a concentration that strongly suppresses LTP (black column). […] The aim of this experiment was to evaluate the dose-dependent effects of compound (1) on in vivo LTP in anesthetized rats at very low concentrations. Compound (1) has been administered s.c. at dose of 0.08 mg/kg, 0.4 mg/kg, and 2.0 mg/kg. Amyloid beta Aβ1-42 has been injected into brain ventricles at a concentration that strongly suppresses LTP. […] In animals subject to intracerebroventricular (i.c.v.) injection of 6 μL oligomeric Aβ1-42 solution (1.67 mM) significant deficits in LTP were observed. (FIG. 3). At the end of the recording period, 80-90 min after LTP induction, the PS amplitude following i.c.v. administration of oligomeric Aβ1-42 measured 138.1±4.1% of baseline (n=18), compared to 179.2±8.7% in PBS-injected animals (n=12). In animals subjected to i.c.v injection of 6 μL oligomeric Aβ1-42, 3 different s.c. doses of compound (1), namely 0.08, 0.4 and 2 mg/kg, were administrated before i.c.v. injection of oligomeric Aβ1-42. […] At the end of the recording period, 80-90 min after LTP induction, the PS amplitude following s.c. administration of compound (1) and i.c.v. administration of oligomeric Aβ1-42 measured 170.0±11.9% of baseline (n=7) for the 2 mg/kg dose, 174.7±16.0% of baseline (n=6) for the 0.4 mg/kg dose, and 139.6±13.1% of baseline (n=4) for the 0.08 mg/kg dose, compared to 179.2±8.7% in vehicle-treated controls (n=12) and 138.1±4.1% i.c.v. oligomeric Aβ1-42-injected animals (n=18).

Aβ1-42 oligomers = molecular target: T3, Aβ1-42 oligomers (Homo sapiens, UniProt P05067); assay: In vitro LTP in hippocampal brain slices superfused with 50 nM Aβ1-42; design: species or system mice; settings: for effect on Aβ1-42 toxicity in in vitro LTP: 50 nM Aβ1-42; for Relative effect size (blocking Aβ1-42 toxicity): control LTP = 100%, Aβ1-42 alone = 0%
T3 construct: host or cells: peptide added to the superfusion solution of hippocampal slices
T3 sequence (P05067 672-713 limits assumed): as above
Procedure: FIGS. 4A-B. FIG. 4A Illustrates plots from in vitro LTP experiments using rat brain slices that were superfused at 23° C. with 50 nM Aβ1-42 and/or with 10 nM compound (1). The compound (1) solution was added for 90 min before HFS was delivered in the first input (dark grey circles). […] To ensure the validity of the Aβ1-42-mediated effect, interleaved experiments with Aβ1-42 (50 nM, closed circles, n=12) were additionally performed in separate slices. […] Representative field excitatory postsynaptic potentials ([…]) are shown on top. FIG. 4B Represents a graphical illustration of compound (1)'s dose-dependent effects on in vitro LTP in rat brain slices based on LTP experiments shown in FIG. 4A. Toxic Aβ1-42 oligomers formed from 50 nM amyloid beta Aβ1-42 monomers block the LTP response almost entirely (black column). […] This refutes the previous scientific status, which called for an excess of the detoxifying agent. Data are shown as means of 5 experiments (n=5)±standard deviations. For the long-term potentiation (LTP) experiments brain slices from 2 months old mice were used. Transverse hippocampal slices (350 μm thick) were obtained after decapitation under isoflurane-anesthesia. All slices were placed in a holding chamber for at least 60 min and were then transferred to a super fusing chamber for extracellular recordings. The flow rate of the solution through the chamber was 4 ml/min. […] All experiments were performed at room temperature. Aβ1-42 stock solution in DMSO was added to the bath solution to give a final concentration of 50 nM. Extracellular recordings of field excitatory postsynaptic potentials (fEPSPs) were obtained from the dendritic region of the CA1 region of the hippocampus using glass micropipettes filled with superfusion solution. For all recordings both stimulating electrodes were used to utilize the input specificity of LTP and thereby allow the measurement of an internal control within the same slice. Steady baseline recordings were made for at least 30 minutes before application of tetanic stimuli. For LTP induction, high-frequency stimulation (HFS) conditioning pulses (100 Hz/1 s; 4-5 V) were applied to the Schaffer collateral commissural pathway via two independent inputs. Before inducing LTP, Aβ1-42 has been applied for 90 min. HFS was delivered from one of the electrodes under conditions in the presence of Compound (1) and potentiation of the responses was monitored for at least 60 min after the tetanus. Either Aβ1-42 was then applied via the bath solution for 90 min before attempting to induce LTP in the second input following HFS delivered via the second electrode. Amplified fEPSPs were filtered (3 kHz), digitized (15 kHz), measured and plotted (FIG. 4A). Measurements of the slope of the fEPSP were taken between 20% and 80% of the peak amplitude. Slopes of fEPSPs were normalized with respect to the 20 min control period before tetanic stimulation. Compound (1) was used at various concentrations in these LTP experiments. […] FIG. 4B summarizes the effects of different compound (1) concentrations leading to different stoichiometric Aβ1-42/compound (1) ratios (10:1, 2:1, 1:5). The LTP signals (fEPSP potentiation) calculated as the average of the last 50-60 mins after HFS are presented as a bar diagram. […] The control experiment is defined as 100% normalized LTP response and the toxic effect of 50 nM Aβ1-42 oligomers is defined as 0% normalized LTP change. Using the usual stoichiometric excess for compound (1), namely 500 nM or 100 nM, leads to a weak detoxifying effect of 40.2% and 34.7%, respectively.

amyloid beta Aβ1-42, sequence (P05067 672-713 limits assumed): as above

SMILES: CC(C)(NC(=O)C(N)Cc1c[nH]c2ccccc12)C(=O)O (stereo not shown) [GAL-101, 2-[2-Amino-3-(1H-indol-3-yl)-propionylamino]-2-methyl-propionic acid]
- Kd (amyloid beta Aβ1-42): 0.0289 ± 0.0029 µM

SMILES: CC(C)(NC(=O)[C@H](N)Cc1c[nH]c2ccccc12)C(N)=O [compound (1), (2R)-2-amino-N-(1-carbamomyl-1-methlyethyl)-3-(1H-indol-3-yl) propanamide] (H-[dW]-[Aib]-NH2)
- Kd (Aβ1-42 monomers; SPR steady state, 25° C, HBS-EP, 0.3-1000 nM, n=4, read-out: KD (dissociation constant) at Aβ1-42 monomers): 0.0025 ± 0.0006 µM
- affinity to the target compared to GAL-101 (fold stronger) (Aβ1-42 monomers; compound (1) vs GAL-101): 4 fold
- peak brain concentration (extracellular space of the brain) ([1]; s.c. 0.4 mg/kg): 10 nM
- brain concentration (brain ISF) ([1]; s.c. 2 mg/kg): ca. 60 nM
- effect on Aβ1-42-suppressed in vivo LTP (oligomeric Aβ1-42; 0.08 mg/kg s.c.): loss of the pharmacological effect
- PS amplitude 80-90 min after LTP induction (oligomeric Aβ1-42; 0.08 mg/kg s.c. + i.c.v. oligomeric Aβ1-42, n=4): 139.6±13.1 % of baseline
- effect on Aβ1-42-suppressed in vivo LTP (oligomeric Aβ1-42; 0.4 mg/kg s.c.): at least as potent efficacy on LTP; also recorded: fully restored LTP signal; also recorded: brought post-TBS responses towards those observed in control animals
- PS amplitude 80-90 min after LTP induction (oligomeric Aβ1-42; 0.4 mg/kg s.c. + i.c.v. oligomeric Aβ1-42, n=6): 174.7±16.0 % of baseline
- effect on Aβ1-42-suppressed in vivo LTP (oligomeric Aβ1-42; 2 mg/kg s.c.): brought post-TBS responses towards those observed in control animals; also recorded: normalizes the LTP signal
- PS amplitude 80-90 min after LTP induction (oligomeric Aβ1-42; 2 mg/kg s.c. + i.c.v. oligomeric Aβ1-42, n=7): 170.0±11.9 % of baseline
- effect on Aβ1-42 toxicity in in vitro LTP (Aβ1-42 oligomers; 10 nM compound (1)): best prevented the detrimental effect of 50 nM Aβ1-42 on hippocampal LTP; also recorded: able to prevent LTP blockade; also recorded: blocks Aβ1-42 toxicity almost completely
- Relative effect size (blocking Aβ1-42 toxicity) (Aβ1-42 oligomers; 10 nM compound (1), 50 nM Aβ1-42, ratio 1:5): 88.1%
- LTP induction in presence of compound alone (Aβ1-42 oligomers; 10 nM compound (1), 90 min before HFS, no Aβ1-42): allowed the induction of LTP
- effect on Aβ1-42 toxicity in in vitro LTP (Aβ1-42 oligomers; 100 nM compound (1)): only partially alleviate the toxic effect of Aβ1-42
- Relative effect size (blocking Aβ1-42 toxicity) (Aβ1-42 oligomers; 100 nM compound (1), 50 nM Aβ1-42, ratio 2:1): 34.7%
- Relative effect size (blocking Aβ1-42 toxicity) (Aβ1-42 oligomers; 100 nM compound (1), 50 nM Aβ1-42, ratio 2:1, listed as Compound (1)): 34.7%
- effect on Aβ1-42 toxicity in in vitro LTP (Aβ1-42 oligomers; 500 nM compound (1)): only partially alleviate the toxic effect of Aβ1-42
- Relative effect size (blocking Aβ1-42 toxicity) (Aβ1-42 oligomers; 500 nM compound (1), 50 nM Aβ1-42, ratio 10:1): 40.2%
- Relative effect size (blocking Aβ1-42 toxicity) (Aβ1-42 oligomers; 500 nM compound (1), 50 nM Aβ1-42, ratio 10:1, listed as Compound (1)): 40.2%
- detoxifying effect in undersupply compared to stoichiometric excess (Aβ1-42 oligomers; 10-fold undersupply (ratio 1:10) as worded, refers to Table 1): more than double as strong
- molecules of Aβ1-42 detoxified by 1 molecule of compound (1) (Aβ1-42 oligomers; efficacy at 10 nM vs 50 nM Aβ1-42): 5

— US20250275944A1, “RELATIVE UNDERSUPPLY OF AN AMYLOID BETA AGGREGATION INHIBITOR FOR IMPROVED DETOXIFYING EFFECTS” (Galimedix Therapeutics Inc, priority 2022, published 2025)
